For test [1], the target named is Serine/threonine-protein kinase 10 (Homo sapiens) (UniProt O94804). Conditions: at 10 µM.
The target in test [2] is Phosphatidylinositol 4-phosphate 5-kinase type-1 alpha (Homo sapiens) (UniProt Q99755). The test is described as follows: Selectivity interaction (KinomeScan (DiscoverX)) EUB0001619a PIP5K1A. Conditions: at 1 µM.
Test [3] deals with Serine/threonine-protein kinase N1 (Homo sapiens, UniProt Q16512). In words: Selectivity interaction (ActivX KiNativ screen (ex vivo kinase selectivity in human PBMCs)) EUB0001619a PKN1. The class given is cell-based. Conditions: PBMC, at 1 µM.
Sequence of Serine/threonine-protein kinase N1 (Q16512 2-942 limits assumed): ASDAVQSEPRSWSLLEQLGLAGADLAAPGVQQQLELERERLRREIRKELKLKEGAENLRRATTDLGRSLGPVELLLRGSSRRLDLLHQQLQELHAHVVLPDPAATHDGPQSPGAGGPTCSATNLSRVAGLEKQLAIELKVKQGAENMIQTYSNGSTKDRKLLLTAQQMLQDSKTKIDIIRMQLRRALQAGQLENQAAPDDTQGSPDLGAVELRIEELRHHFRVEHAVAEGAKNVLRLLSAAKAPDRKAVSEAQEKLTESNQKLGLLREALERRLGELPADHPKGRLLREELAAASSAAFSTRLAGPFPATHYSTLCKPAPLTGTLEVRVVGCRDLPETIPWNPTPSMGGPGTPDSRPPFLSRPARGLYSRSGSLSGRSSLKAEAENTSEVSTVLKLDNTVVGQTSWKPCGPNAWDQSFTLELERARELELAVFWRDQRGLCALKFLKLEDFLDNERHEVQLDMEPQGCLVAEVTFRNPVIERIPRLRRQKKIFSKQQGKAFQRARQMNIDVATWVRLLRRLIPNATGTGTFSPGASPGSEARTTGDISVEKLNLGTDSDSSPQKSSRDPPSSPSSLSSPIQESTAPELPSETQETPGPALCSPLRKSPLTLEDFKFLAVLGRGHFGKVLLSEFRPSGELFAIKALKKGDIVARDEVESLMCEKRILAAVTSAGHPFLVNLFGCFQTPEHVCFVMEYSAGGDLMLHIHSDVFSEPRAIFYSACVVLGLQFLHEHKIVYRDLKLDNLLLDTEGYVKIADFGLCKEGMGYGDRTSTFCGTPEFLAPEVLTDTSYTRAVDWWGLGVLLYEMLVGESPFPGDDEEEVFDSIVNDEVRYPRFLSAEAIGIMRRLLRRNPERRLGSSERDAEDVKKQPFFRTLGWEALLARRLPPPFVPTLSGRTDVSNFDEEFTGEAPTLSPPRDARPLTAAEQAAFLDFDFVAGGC
Test [4] concerns the target Gastrin/cholecystokinin type B receptor (Homo sapiens) (UniProt P32239). The test is described as follows: Selectivity interaction (Eurofins CEREP Diversity Profile (receptors and ion channels)) EUB0000279b CCKBR. The note with it: at 10 µM.
Test [5] deals with T1, Serine/threonine-protein kinase Sgk1 (Homo sapiens) (UniProt O00141).
T1 sequence (whole entry): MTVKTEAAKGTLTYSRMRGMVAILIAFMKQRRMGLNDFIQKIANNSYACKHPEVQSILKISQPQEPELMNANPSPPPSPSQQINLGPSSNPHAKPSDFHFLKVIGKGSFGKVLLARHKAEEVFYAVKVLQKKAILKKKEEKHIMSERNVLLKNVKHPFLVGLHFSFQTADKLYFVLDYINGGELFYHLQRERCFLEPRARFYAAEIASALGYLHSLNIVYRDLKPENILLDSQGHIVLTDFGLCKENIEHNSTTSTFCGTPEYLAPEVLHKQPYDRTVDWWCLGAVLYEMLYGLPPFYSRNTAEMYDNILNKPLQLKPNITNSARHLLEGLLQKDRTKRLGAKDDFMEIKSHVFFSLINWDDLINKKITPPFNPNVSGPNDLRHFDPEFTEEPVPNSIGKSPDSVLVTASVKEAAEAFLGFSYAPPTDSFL
In words: Selectivity interaction (KinomeScan (DiscoverX)) EUB0000695a SGK1. The note with it: at 100 nM.

The target in another test is Focal adhesion kinase 1 (Homo sapiens, UniProt Q05397). Conditions: at 10 µM.
Sequence of Focal adhesion kinase 1 (Q05397 2-1052 limits assumed): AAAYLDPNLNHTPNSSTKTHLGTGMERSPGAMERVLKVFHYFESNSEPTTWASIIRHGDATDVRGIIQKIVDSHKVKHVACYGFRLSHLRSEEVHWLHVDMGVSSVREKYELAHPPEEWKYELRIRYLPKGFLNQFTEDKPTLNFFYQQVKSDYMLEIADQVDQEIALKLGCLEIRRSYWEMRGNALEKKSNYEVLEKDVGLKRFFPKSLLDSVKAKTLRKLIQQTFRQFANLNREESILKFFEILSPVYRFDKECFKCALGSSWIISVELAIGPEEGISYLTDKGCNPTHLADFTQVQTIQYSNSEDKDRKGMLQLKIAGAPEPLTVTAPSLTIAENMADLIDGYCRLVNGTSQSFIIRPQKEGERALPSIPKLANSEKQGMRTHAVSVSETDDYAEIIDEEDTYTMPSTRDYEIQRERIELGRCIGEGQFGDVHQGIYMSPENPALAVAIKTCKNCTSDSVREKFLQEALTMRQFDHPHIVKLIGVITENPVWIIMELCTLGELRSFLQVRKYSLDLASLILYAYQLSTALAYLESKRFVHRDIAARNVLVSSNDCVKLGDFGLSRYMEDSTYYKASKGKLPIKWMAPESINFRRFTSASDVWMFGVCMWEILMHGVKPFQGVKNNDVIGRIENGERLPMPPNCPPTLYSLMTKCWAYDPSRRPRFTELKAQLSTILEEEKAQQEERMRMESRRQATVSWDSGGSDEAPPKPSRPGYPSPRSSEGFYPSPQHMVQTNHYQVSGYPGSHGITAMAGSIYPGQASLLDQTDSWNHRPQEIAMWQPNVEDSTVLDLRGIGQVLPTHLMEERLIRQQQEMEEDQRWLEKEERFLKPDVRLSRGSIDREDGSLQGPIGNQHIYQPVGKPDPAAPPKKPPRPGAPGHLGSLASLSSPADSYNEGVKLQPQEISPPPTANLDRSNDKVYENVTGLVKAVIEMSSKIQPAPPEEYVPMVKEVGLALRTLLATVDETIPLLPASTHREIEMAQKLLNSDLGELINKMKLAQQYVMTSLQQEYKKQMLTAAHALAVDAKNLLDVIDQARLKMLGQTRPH
Test [6] has as its target T2, 3-phosphoinositide-dependent protein kinase 1 (Homo sapiens) (UniProt O15530).
T2 sequence (whole entry): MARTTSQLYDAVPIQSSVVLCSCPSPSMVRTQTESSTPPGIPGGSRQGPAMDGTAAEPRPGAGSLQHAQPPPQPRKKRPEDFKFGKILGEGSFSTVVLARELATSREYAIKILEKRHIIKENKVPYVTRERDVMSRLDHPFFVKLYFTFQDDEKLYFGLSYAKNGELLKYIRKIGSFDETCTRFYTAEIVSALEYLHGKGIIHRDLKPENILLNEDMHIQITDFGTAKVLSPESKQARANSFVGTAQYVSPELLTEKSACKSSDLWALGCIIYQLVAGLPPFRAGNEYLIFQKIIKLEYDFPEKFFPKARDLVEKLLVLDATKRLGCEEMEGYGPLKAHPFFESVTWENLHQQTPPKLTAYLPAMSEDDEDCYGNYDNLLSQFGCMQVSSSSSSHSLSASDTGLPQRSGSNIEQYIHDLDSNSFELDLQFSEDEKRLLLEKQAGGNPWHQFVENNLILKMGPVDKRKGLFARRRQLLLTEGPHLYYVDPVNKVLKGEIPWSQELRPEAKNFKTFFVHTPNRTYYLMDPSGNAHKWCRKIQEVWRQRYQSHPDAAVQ
The test is described as follows: Selectivity interaction (KinomeScan (DiscoverX)) EUB0000045b PDPK1.

For test [7], the target named is Rho-associated protein kinase 2 (Homo sapiens, UniProt O75116). In words: Selectivity interaction (KinomeScan (DiscoverX)) EUB0000045b ROCK2.
Sequence of Rho-associated protein kinase 2 (O75116 whole entry, looked up): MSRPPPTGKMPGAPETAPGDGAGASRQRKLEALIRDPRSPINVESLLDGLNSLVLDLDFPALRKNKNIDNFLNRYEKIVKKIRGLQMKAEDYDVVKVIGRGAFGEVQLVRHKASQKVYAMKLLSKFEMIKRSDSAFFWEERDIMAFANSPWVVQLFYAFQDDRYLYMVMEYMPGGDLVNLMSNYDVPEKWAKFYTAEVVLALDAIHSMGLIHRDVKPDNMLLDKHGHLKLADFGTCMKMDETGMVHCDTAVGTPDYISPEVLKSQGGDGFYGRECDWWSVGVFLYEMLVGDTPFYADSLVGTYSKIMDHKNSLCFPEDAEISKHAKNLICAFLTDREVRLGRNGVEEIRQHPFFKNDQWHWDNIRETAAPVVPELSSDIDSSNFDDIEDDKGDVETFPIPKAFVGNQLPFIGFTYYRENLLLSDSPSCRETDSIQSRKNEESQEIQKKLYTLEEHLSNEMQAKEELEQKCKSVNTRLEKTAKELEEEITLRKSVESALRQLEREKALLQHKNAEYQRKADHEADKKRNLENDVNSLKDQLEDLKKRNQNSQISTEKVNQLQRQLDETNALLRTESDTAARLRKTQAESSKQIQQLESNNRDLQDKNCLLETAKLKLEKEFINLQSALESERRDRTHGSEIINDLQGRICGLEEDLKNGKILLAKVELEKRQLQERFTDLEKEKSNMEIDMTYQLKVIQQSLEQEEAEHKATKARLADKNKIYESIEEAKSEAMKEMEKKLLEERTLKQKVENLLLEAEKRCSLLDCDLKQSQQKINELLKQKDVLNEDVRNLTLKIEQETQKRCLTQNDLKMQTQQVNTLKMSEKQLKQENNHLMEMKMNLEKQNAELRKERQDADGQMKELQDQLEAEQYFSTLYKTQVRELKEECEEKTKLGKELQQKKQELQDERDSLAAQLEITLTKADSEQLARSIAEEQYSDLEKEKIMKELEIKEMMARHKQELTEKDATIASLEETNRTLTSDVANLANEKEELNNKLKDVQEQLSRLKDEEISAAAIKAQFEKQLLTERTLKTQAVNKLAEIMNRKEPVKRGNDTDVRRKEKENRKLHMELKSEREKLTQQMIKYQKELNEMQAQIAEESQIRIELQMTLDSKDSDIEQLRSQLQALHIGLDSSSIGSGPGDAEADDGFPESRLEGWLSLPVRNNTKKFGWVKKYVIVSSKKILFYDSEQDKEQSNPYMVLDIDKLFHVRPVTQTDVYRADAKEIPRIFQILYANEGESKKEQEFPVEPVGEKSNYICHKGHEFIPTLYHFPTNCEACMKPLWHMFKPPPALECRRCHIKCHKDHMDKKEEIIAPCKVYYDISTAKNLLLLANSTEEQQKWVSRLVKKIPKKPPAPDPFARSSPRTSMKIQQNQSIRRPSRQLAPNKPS
The target in test [8] is Serine/threonine-protein kinase PAK 4 (Homo sapiens, UniProt O96013). In words: Selectivity interaction (Kinase panel (literature)) EUB0001199aCl PAK4. Conditions: at 1 µM.
For test [9], the target named is G protein-coupled receptor kinase 6 (Homo sapiens) (UniProt P43250). The test is described as follows: Selectivity interaction (ProQinase) EUB0000171b GRK6.
Sequence of G protein-coupled receptor kinase 6 (Homo sapiens) (P43250 whole entry, looked up, the tested form may be a part): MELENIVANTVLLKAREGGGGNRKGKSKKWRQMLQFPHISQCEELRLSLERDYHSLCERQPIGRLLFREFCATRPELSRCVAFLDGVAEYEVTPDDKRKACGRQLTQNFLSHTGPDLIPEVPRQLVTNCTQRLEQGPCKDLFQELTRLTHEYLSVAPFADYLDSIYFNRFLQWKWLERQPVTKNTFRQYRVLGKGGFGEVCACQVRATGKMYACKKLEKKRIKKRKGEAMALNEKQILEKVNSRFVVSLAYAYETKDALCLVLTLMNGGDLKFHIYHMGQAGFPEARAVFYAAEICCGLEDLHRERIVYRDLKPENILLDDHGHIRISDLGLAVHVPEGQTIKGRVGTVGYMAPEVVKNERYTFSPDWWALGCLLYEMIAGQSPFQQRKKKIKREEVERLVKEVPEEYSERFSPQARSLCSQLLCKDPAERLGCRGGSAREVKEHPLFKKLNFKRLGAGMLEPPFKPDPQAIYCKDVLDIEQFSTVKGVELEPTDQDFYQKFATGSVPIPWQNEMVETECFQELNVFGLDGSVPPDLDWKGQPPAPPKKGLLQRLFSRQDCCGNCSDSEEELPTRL
Test [10] deals with LIM domain kinase 1 (Homo sapiens) (UniProt P53667). The test is described as follows: Selectivity interaction (Ambit KINOMEscan and KiNATiv profiling in Jurkat cells) EUB0000090b LIMK1. The class given is cell-based. The note with it: at 1 µM.
Test [11] concerns the target Mitogen-activated protein kinase kinase kinase 10 (Homo sapiens) (UniProt Q02779). The test is described as follows: Selectivity interaction (KinomeScan (DiscoverX)) EUB0001049a MAP3K10. The note with it: at 1 µM.
Test [12] addresses Serine/threonine-protein kinase Nek4 (Homo sapiens) (UniProt P51957). The test is described as follows: Selectivity interaction (KinomeScan (DiscoverX)) EUB0000618a NEK4. Conditions: at 10 µM.
Test [13] concerns the target Serine/threonine-protein kinase 32C (Homo sapiens) (UniProt Q86UX6). The test is described as follows: Selectivity interaction (KinomeScan (DiscoverX)) EUB0000618a STK32C. Conditions: at 10 µM.
In test [14] the target is G protein-coupled receptor kinase 4 (Homo sapiens) (UniProt P32298). The test is described as follows: Selectivity interaction (KinomeScan (DiscoverX)) EUB0000092b GRK4. Conditions: at 10 µM.
Sequence of G protein-coupled receptor kinase 4 (Homo sapiens) (P32298 whole entry, looked up): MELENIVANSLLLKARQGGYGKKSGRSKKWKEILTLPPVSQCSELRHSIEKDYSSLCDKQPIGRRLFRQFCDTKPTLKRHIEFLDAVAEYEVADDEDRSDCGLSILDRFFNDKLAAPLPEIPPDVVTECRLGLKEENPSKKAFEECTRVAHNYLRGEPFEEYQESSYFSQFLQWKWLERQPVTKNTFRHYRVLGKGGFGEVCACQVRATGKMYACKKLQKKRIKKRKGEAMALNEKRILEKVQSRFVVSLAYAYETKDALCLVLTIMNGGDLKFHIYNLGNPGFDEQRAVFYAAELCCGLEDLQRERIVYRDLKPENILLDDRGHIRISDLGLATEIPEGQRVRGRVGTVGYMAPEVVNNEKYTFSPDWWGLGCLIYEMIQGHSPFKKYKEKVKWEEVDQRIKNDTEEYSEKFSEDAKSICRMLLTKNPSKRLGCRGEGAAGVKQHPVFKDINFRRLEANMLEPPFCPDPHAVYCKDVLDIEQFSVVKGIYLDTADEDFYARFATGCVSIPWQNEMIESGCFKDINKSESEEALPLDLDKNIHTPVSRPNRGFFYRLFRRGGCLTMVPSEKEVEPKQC
For test [15], the target named is T3, Serine/threonine-protein kinase 3 (Homo sapiens) (UniProt Q13188).
T3 sequence (whole entry): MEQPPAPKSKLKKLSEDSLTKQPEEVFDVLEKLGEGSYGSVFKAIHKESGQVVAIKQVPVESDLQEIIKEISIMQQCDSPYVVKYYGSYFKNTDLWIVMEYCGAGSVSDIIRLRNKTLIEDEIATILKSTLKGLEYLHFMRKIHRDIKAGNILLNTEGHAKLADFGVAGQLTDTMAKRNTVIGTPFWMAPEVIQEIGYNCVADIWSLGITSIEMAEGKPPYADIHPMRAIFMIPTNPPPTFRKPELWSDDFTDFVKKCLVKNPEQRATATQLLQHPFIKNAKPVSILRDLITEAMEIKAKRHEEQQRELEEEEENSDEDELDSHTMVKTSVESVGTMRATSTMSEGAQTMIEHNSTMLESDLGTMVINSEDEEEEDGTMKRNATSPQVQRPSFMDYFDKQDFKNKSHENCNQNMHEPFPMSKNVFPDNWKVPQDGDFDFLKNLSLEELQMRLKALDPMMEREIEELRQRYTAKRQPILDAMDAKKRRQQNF
In words: Selectivity interaction (Millipore kinase profiler) EUB0000124b STK3. Conditions: at 10 µM.

Sequence of Gastrin/cholecystokinin type B receptor (Homo sapiens) (P32239 whole entry): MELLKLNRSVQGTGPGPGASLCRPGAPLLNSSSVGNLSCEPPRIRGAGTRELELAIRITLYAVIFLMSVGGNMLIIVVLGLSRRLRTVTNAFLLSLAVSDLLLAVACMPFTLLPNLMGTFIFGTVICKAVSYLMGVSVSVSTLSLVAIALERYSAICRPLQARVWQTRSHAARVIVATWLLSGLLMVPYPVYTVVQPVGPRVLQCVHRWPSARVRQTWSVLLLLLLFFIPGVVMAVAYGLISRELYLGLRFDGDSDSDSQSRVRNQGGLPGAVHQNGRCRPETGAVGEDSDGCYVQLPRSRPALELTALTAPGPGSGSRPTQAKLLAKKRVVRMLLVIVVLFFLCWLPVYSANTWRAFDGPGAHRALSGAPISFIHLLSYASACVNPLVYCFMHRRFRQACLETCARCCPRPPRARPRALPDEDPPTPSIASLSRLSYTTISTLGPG

In test [1], `COCC(=O)NC/C=C/c1ccc2ncnc(Nc3ccc(Oc4ccc(C)nc4)c(C)c3)c2c1` [CP-724714] returned a % of control of 4.2%.

Compound `N#Cc1cccc(-c2c[nH]c3ncnc(N4CCOCC4)c23)c1` yielded a % of control in test [2] of 20%. This compound also displayed a % of inhibition in test [3] of 31%.

`CC(=O)c1cc(-c2ccccc2OCC2CC2)c2ncccn12`: in test [4], the % of control was 95%.

For `Cc1cc(F)c(C(=O)Nc2cccc(-c3nncn3C(C)C)n2)cc1-n1cnc(C2CC2)c1`, the % of control in [5] worked out at 90%.

Turning to `Cc1cc([C@@H](C)Nc2ccccc2C(=O)O)c2nc(N3CCOCC3)cc(=O)n2c1` [AZD-6482], on Focal adhesion kinase 1, the % of control is 88%.

Regarding `C=CC(=O)Nc1cc(-n2c(=O)ccc3cnc4ccc(-c5ccc(NS(C)(=O)=O)cc5)cc4c32)ccc1C`, the % of control in test [6] (at 1 µM) stood at 100%; in [6] (at 10 µM), 100%; in test [7] (at 1 µM) it was 87%; in test [7] (at 10 µM), 79%.

With `CN1Cc2nccc(-c3cn(C)nc3-c3ccc(F)cc3)c2C1=O`, the % of inhibition in [8] came to 7%.

As to `C=CC(=O)Nc1cccc(C(=O)Nc2ccc(Nc3cc(-c4[nH]c(SC)nc4C)ccn3)cc2)c1`, the % of control worked out at 88% in test [9] (at 1 µM) and 90% in test [9] (at 5 µM).

For the compound `CN(C)C/C=C/C(=O)Nc1ccc(C(=O)N2CCCC(Nc3ncc(Cl)c(-c4c[nH]c5ccccc45)n3)C2)cc1` (centres undefined), the % of control in [10] worked out at 100%.

For the compound `COc1cc(Nc2nc(C)cc(-c3cnn4nc(OC)ccc34)n2)cc(C(F)(F)F)c1`, the % of control in test [11] was 100%.

Take `O[C@H]1CC[C@H](Nc2ncc3nc(Nc4c(F)cc(F)cc4F)n([C@H]4CCOC4)c3n2)CC1`: the % of control in test [12] and in test [13] was 100% throughout.

In [14], `CCC(=O)N1CCN(c2ccc(-n3c(=O)ccc4cnc5ccc(-c6cnc7ccccc7c6)cc5c43)cc2C(F)(F)F)CC1` returned a % of control of 90%.

In the case of `CC(=O)Nc1cccc(-n2c(=O)n(C3CC3)c(=O)c3c(Nc4ccc(I)cc4F)n(C)c(=O)c(C)c32)c1`, the % of control in test [15] turned out to be 94%.

For the origin of these results see ChEMBL document CHEMBL5465560, “Selectivity Literature for EUbOPEN Chemogenomic Library” (2024).
